Assay results as given in patent publication US20240116985A1, “STAPLED PEPTIDES AND METHODS THEREOF” (priority 2020, published 2024).
≈ marks a conversion by molar mass, not a printed value. Like-named read-outs stand apart in the source and are kept apart here.

Assays:
CHI Log D procedure = type: physicochemical; conditions: pH 7.4, CHI Log D
[1] = biological target: T1, full-length beta-Catenin (Uniprot ID P35222) (Homo sapiens, UniProt P35222); assay: Fluorescence polarization IC50 (beta-catenin / 5FAM-TCF4 10-53 competition); type: binding; conditions: read-out: beta-Catenin FP IC50
T1 construct: 10 nM full-length beta-Catenin (Uniprot ID P35222)
T1 sequence (P35222 1-781): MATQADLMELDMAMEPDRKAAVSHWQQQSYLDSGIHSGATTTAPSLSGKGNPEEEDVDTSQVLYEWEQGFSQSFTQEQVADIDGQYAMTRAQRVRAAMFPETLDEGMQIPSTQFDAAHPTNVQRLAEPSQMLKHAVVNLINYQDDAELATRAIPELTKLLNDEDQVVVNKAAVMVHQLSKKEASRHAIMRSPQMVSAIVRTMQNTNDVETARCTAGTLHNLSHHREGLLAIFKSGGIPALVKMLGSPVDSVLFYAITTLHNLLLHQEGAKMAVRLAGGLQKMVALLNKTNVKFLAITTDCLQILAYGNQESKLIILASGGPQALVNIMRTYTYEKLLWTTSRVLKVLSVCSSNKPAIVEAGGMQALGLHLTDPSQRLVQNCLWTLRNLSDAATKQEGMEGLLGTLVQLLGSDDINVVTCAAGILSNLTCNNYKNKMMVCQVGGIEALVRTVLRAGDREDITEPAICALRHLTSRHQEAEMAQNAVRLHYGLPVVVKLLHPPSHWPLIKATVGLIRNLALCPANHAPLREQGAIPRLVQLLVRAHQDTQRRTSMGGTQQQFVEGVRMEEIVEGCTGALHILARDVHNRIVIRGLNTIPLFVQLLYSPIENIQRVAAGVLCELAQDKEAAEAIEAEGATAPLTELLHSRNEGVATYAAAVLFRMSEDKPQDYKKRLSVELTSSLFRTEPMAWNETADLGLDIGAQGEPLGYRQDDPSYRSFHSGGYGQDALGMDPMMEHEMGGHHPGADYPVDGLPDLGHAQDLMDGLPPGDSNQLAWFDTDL

Solubility in PBS = type: physicochemical
Summary of the method: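 HPLC quantitation of peptide remaining in the PBS supernatant after ultracentrifugation, referenced to a 50 μM solution in DMSO.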

[2] = biological target: T2, beta-catenin/TCF4 engagement (Homo sapiens, UniProt P35222); assay: Nano-BRET target engagement assay (B-cat-Halo & TCF4-Luc in HEK293 cells); type: cell-based; conditions: for IC50: read-out: NanoBRET Abs IC50
T2 construct: expressed in transfected cells; host or cells: HEK293
T2 sequence (P35222 1-781): T1 sequence (P35222 1-781)

Compound	chromatographic logD (CHI Log D procedure)	IC50 ([1]; fluorescence polarization) [nM]	Solubility (Solubility in PBS; Solubility (uM)) [µM]	inhibition at 10 µM ([2]; HEK293, @ 10 uM, read-out: NanoBRET % inh @ 10 uM) [%]	IC50 [1] [nM]	Solubility (Solubility in PBS) [µM]	IC50 [2] [nM]	IC50 ([2]; absolute IC50) [nM]
CC(=O)N1CCC[C@]12CC=CCCCC1(CCCC=CCCCOC(=O)N3CC[C@@](C(=O)N[C@@H](Cc4ccsc4)C(=O)N[C@@H](Cc4csc5ccccc45)C(=O)N[C@@H](Cc4c[nH]cn4)C(N)=O)(C3)NC(=O)[C@H](CC(N)=O)NC(=O)[C@H](Cc3ccccc3)NC(=O)[C@H](C)NC(=O)[C@H](C)NC(=O)[C@H](CC(=O)O)NC(=O)[C@H](CC(=O)O)NC1=O)NC(=O)[C@H](CC(C)C)NC(=O)[C@H](CC(=O)O)NC2=O (stereo partly drawn) [I-696, Ac-PL3-Asp-Leu-B5-Asp-Asp-Ala-Ala-Phe-Asn-PyrS2-3Thi-BztA-His-NH2]	2	5	40 (≈ 76.5 µg/mL)	17	–	–	–	–
CC(=O)N1CCC[C@]12CC=CCCCC1(CCCC=CCCCOC(=O)N3CC[C@@](C(=O)N[C@@H](Cc4ccsc4)C(=O)N[C@@H](Cc4csc5ccccc45)C(=O)N[C@@H](Cc4c[nH]cn4)C(N)=O)(C3)NC(=O)[C@H](CC(C)C)NC(=O)[C@H](Cc3ccccc3)NC(=O)[C@H](C)NC(=O)[C@H](C)NC(=O)[C@H](CC(=O)O)NC(=O)[C@H](CC(=O)O)NC1=O)NC(=O)[C@H](CC(C)(C)C)NC(=O)[C@H](CC(=O)O)NC2=O (stereo partly drawn) [I-802, Ac-PL3-Asp-Npg-B5-Asp-Asp-Ala-Ala-Phe-Leu-PyrS2-3Thi-BztA-His-NH2]	2.3	–	–	–	6	10 (≈ 19.3 µg/mL)	4800	–
COc1cccc(C[C@@H]2NC(=O)[C@H](C)NC(=O)[C@H](C)NC(=O)[C@H](CC(=O)O)NC(=O)[C@H](CC(=O)O)NC(=O)C3(CCCC=CCCCOC(=O)N4CC[C@@](C(=O)N[C@@H](Cc5ccccc5)C(=O)N[C@@H](Cc5csc6ccccc56)C(=O)N[C@@H](CCC(N)=O)C(N)=O)(C4)NC(=O)[C@H](CC(C)C)NC2=O)CCCC=CC[C@]2(CCCN2C(C)=O)C(=O)N[C@@H](CC(=O)O)C(=O)N[C@@H](CC(C)(C)C)C(=O)N3)c1 (stereo partly drawn) [I-1127, Ac-PL3-Asp-Npg-B5-Asp-Asp-Ala-Ala-3OMeF-Leu-PyrS2-Phe-BztA-Gln-NH2]	2.18	–	47 (≈ 91.2 µg/mL)	–	18	–	5400	–
CC(=O)N1CCC[C@]12CC=CCCCC1(CCCC=CCCCOC(=O)N3CC[C@@](C(=O)N[C@@H](Cc4ccccc4Cl)C(=O)N[C@@H](Cc4csc5ccccc45)C(=O)N[C@@H](C(N)=O)[C@H](C)O)(C3)NC(=O)[C@H]([C@@H](C)O)NC(=O)[C@H](Cc3ccccc3)NC(=O)[C@H](C)NC(=O)[C@H](C)NC(=O)[C@H](CC(=O)O)NC(=O)[C@H](CC(=O)O)NC1=O)NC(=O)[C@H](CC(C)(C)C)NC(=O)[C@H](CC(=O)O)NC2=O (stereo partly drawn) [I-1033, Ac-PL3-Asp-Npg-B5-Asp-Asp-Ala-Ala-Phe-Thr-PyrS2-2ClF-BztA-dThr-NH2]	2.5	–	34 (≈ 64.8 µg/mL)	–	10	–	8600	–
CC(=O)N1CCC[C@]12CC=CCCCC1(CCCC=CCCCOC(=O)N3CC[C@@](C(=O)N[C@@H](Cc4ccccc4)C(=O)N[C@@H](Cc4csc5ccccc45)C(=O)N[C@@H](CO)C(N)=O)(C3)NC(=O)[C@H](CO)NC(=O)[C@H](CC3CCCCC3)NC(=O)[C@H](C)NC(=O)[C@H](C)NC(=O)[C@H](CC(=O)O)NC(=O)[C@H](CC(=O)O)NC1=O)NC(=O)[C@H](CC(C)(C)C)NC(=O)[C@H](CC(=O)O)NC2=O (stereo partly drawn) [I-1105, Ac-PL3-Asp-Npg-B5-Asp-Asp-Ala-Ala-Cha-Ser-PyrS2-Phe-BztA-Ser-NH2]	2.33	–	48 (≈ 88.8 µg/mL)	–	36	–	–	> 20000
CC(=O)N1CCC[C@]12CC=CCCCC1(CCCC=CCCCOC(=O)N3CC[C@@](C(=O)N[C@@H](Cc4ccccc4Cl)C(=O)N[C@@H](Cc4csc5ccccc45)C(=O)N[C@@H](CCC(N)=O)C(N)=O)(C3)NC(=O)[C@H](CC(C)C)NC(=O)[C@H](Cc3cccc(C(F)(F)F)c3)NC(=O)[C@H](C)NC(=O)[C@H](C)NC(=O)[C@H](CC(=O)O)NC(=O)[C@H](CC(=O)O)NC1=O)NC(=O)[C@H](CC(C)(C)C)NC(=O)[C@H](CC(=O)O)NC2=O (stereo partly drawn) [I-1122, Ac-PL3-Asp-Npg-B5-Asp-Asp-Ala-Ala-3F3MeF-Leu-PyrS2-2C1F-BztA-Gln-NH2]	2.41	–	14 (≈ 28.2 µg/mL)	–	34	–	12300	–
